Tests used:
[1] = tested on: U937 cells; experiment: Inhibition rate of compound (1 μM) on necroptosis of U937 cells (TSZ-induced, CellTiter-Glo); type: cell-based; settings: TSZ (hTNF-α, SM-164, Z-VAD-FMK) 20 hours
Protocol: (§1) The biological activity of RIPK1 inhibitors was further evaluated in the inhibition of necroptosis in U937 cells. U937 cell line was purchased from Huatuo Biotechnology and stored in liquid nitrogen. U937 cells were revived before the experiment and cultured in RPMI-1640 medium (supplemented with 10% fetal bovine serum, 100 U/mL penicillin and 100 μg/mL streptomycin) at 37° C., 5% CO2. The activity was further evaluated by the cellular ATP level detected by the Promega CellTiter-Glo 2.0 Assay cell viability assay kit (Catalog No.: G9242).
The experimental method was briefly described as below. U937 cells in the logarithmic growth phase were collected by centrifugation. Cells were diluted at the density of 5×10^5 cells/mL with RPMI 1640 medium (supplemented with 10% fetal bovine serum, 100 U/mL penicillin and 100 μg/mL streptomycin). The cell suspension was added to a white sterile 384-well cell culture plate at 15 μL/well. The test compound was dissolved in DMSO to prepare a 10 mM stock solution and diluted to 10 μM with culture medium. At the same time, a control with the same DMSO volume was set up. Two replicates were added for each concentration. The diluted compound was added to the 384-well cell culture plate containing cells at 2.5 µL/well and incubated at 37° C., 5% CO2 for 15 minutes. Z-VAD-FMK (Biyuntian, catalog number: C1202-5 mg) was dissolved in DMSO to prepare a 20 mM stock solution. SM-164 (Biyuntian, catalog number: SC0114-10 mM) was dissolved in DMSO to prepare a 10 mM stock solution and diluted to 0.1 mM. hTNF-α (Sino Biological Inc., catalog number: 10602-HNAE) was dissolved in sterile water to 10 μg/mL. RPMI 1640 medium (supplemented with 10% fetal bovine serum, 100 U/mL penicillin and 100 μg/mL streptomycin) was used to prepare the TSZ mixture, containing 133.3 μM Z-VAD-FMK, 33.3 ng/ml hTNF-α and 0.3 μM SM-164. After 15 minutes' coculture of compounds and cells, 7.5 μL of TSZ mixture was added to each well, mixed evenly, and cultured at 37° C., 5% CO2 for 20 hours. After 20 hours, the culture plate was removed and placed at room temperature for 30 minutes. 10 μL of CellTiter-Glo reagent pre-equilibrated at room temperature was added to each well and incubated for 10 minutes from light. The chemiluminescence was read by a microplate reader. The inhibition rate was calculated as Inh %=(1−(no TSZ-TSZ & compound)/(no TSZ-TSZ))×100.

[2] = tested on: U937 cells; experiment: EC50 of necroptosis inhibition in U937 cells (TSZ-induced, CellTiter-Glo); type: cell-based; settings: Homo sapiens, U-937; TSZ (hTNF-α, SM-164, Z-VAD-FMK) 20 hours; 10 concentration points; read-out: EC50 intervals of necroptosis inhibition in U937 cells
Protocol: as §1
The experimental method was briefly described as below. U937 cells in the logarithmic growth phase were collected by centrifugation. Cells were diluted to the cell density of 5×10^5 cells/mL with RPMI 1640 medium (supplemented with 10% fetal bovine serum, 100 U/mL penicillin and 100 μg/mL streptomycin). Cell suspension was added to a white sterile 384-well cell culture plate at 15 μL/well. The test compound was dissolved in DMSO to prepare a 10 mM stock solution. The compound was serially diluted with culture medium at a ratio of 1:3, for a total of 10 concentration points. A control with the same DMSO volume was set, with two replicates for each concentration. The diluted compound was added to the 384-well cell culture plate containing cells at 2.5 μL/well and incubated at 37° C., 5% CO2 for 15 minutes. Z-VAD-FMK (Biyuntian, catalog number: C1202-5 mg) was dissolved in DMSO to prepare a 20 mM stock solution. SM-164 (Biyuntian, catalog number: SC0114-10 mM) was dissolved in DMSO to prepare a 10 mM stock solution and diluted to 0.1 mM. hTNF-α (Sino Biological Inc., catalog number: 10602-HNAE) was dissolved in sterile water to 10 μg/mL. RPMI 1640 medium (supplemented with 10% fetal bovine serum, 100 U/mL penicillin and 100 μg/mL streptomycin) was used to prepare the TSZ mixture, containing 133.3 μM Z-VAD-FMK, 33.3 ng/ml hTNF-α and 0.3 μM SM-164. After 15 minutes' coculture of compounds and cells, 7.5 μL of TSZ mixture was added to each well, mixed evenly, and cultured at 37° C., 5% CO2 for 20 hours. After 20 hours, the culture plate was removed and placed at room temperature for 30 minutes. Then, 10 μL of CellTiter-Glo reagent pre-equilibrated at room temperature was added to each well and incubated. After 10 minutes' incubation at room temperature in the dark, the chemiluminescence were measured using a microplate reader. The inhibition rate was calculated as Inh %=(1−(no TSZ-TSZ & compound)/(no TSZ-TSZ))×100. The EC50 was obtained by fitting the nonlinear regression curve log [inhibitor] vs. response−variable slope (four parameters) in GraphPad Prism.

[3] = biological target: T1, RIPK1 kinase (Homo sapiens, UniProt Q13546); experiment: In vitro RIPK1 kinase activity assay (ADP-Glo), inhibition by compounds at 1 μM; type: biochemical; settings: compound 1 μM; ATP 10 μM; MBP substrate 100 μg/mL; read-out: RIPK1 kinase activity inhibition rate range
T1 construct: purchased Promega VA7593
T1 sequence (Q13546 1-671): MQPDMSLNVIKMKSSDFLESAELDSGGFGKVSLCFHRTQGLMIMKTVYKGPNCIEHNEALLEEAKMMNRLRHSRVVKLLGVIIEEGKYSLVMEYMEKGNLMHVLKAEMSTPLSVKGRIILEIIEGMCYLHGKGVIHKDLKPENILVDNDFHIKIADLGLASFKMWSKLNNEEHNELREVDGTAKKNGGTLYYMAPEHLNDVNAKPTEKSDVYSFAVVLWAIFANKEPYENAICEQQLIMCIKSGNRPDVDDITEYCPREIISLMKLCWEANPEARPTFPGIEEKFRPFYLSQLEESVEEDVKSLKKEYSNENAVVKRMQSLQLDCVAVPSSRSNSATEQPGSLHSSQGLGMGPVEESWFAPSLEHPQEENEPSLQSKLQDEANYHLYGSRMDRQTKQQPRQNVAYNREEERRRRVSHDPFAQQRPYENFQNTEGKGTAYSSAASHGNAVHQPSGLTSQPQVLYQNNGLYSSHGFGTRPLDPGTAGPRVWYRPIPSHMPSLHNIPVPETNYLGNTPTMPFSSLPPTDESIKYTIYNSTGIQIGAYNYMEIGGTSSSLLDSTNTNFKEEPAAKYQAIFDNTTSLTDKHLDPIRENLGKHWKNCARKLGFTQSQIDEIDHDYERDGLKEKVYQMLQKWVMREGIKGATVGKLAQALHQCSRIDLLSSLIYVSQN
Protocol: RIPK1 kinase activity was assayed using the ADP-Glo assay and RIPK1 kinase reaction system (Promega, catalog number: VA7593). The RIPK1 kinase activity assay was performed according to the Promega kit manual.
The experimental method was briefly described as below. The concentration of RIPK1 kinase in the RIPK1 kinase reaction system was determined by kinase titration and S/B10. Compounds were diluted with 1× kinase buffer D (1% DMSO), and 1 μL of 100 μM compound DMSO stock solution was added to 19 μL 1× kinase buffer D. RIPK1 kinase was diluted with 1× kinase buffer D. 2.5×ATP/substrate was diluted with 1× kinase buffer D. The final concentration of ATP in the kinase reaction system was 10 μM, and the final concentration of MBP substrate was 100 μg/mL. 1 μL of diluted compound and 2 μL of diluted RIPK1 kinase were mixed, incubated at room temperature for 15 minutes, 2 μL of 2.5×ATP/substrate was added, mixed, and incubated at room temperature for 1 hour. 5 μL of ADP-Glo reagent was added to each well and incubated at room temperature for 1 hour. 10 μL of ADP detection reagent was added to each well and incubated at room temperature for another 0.5-1 hour. The chemiluminescent signal was read by a microplate reader and the inhibition rate of kinase activity was calculated.

SMILES | Inhibition rate range of compounds (1 μM) on U937 cell necroptosis [1] | EC50 [2] [µM] | inhibition at 1 µM [3] [%]
CN1C(=O)[C@@H](NC(=O)C(=O)NCCc2ccccc2)COc2cc(C#CC3CC3)ccc21 [Example 4, (S)—N^1-(8-(cyclopropylethynyl)-5-methyl-4-oxo-2,3,4,5-tetrahydrobenzo[b][1,4]oxazepin-3-yl)-N^2-phenethyloxalamide] | B (B: 50-89%) | 0.5 to 2 | 
CN1C(=O)C(NC(=O)C(=O)NCCc2ccccc2)CCc2cc(C#CC3CC3)ccc21 (centres unmarked) [Example 64, N^1-(7-(cyclopropylethynyl)-1-methyl-2-oxo-2,3,4,5-tetrahydro-1H-benzo[b]azepin-3-yl)-N^2-phenethyloxalamide] | B (B: 50-89%) | 0.5 to 2 | 
CN1C(=O)C(NC(=O)C(=O)NCCc2ccccc2)CCc2ccccc21 (centres unmarked) [Example 67, N^1-(1-methyl-2-oxo-2,3,4,5-tetrahydro-1H-benzo[b]azepin-3-yl)-N^2-phenethyloxalamide] | A (A: ≥90%) | 0.1 to 0.5 | 
CN1C(=O)[C@@H](NC(=O)C(=O)NCCc2ccccc2)COc2ccc(C#CC3CNC3)cc21 [Example 90, (S)—N^1-(7-(azetidin-3-ylethynyl)-5-methyl-4-oxo-2,3,4,5-tetrahydrobenzo[b][1,4]oxazepin-3-yl)-N^2-phenethyloxalamide] | B (B: 50-89%) | 0.1 to 0.5 | 
CN1C(=O)[C@@H](NC(=O)C(=O)NCCc2cccc(Cl)c2)COc2ccccc21 [Example 101, (S)—N^1-(3-chlorophenethyl)-N^2-(5-methyl-4-oxo-2,3,4,5-tetrahydrobenzo[b][1,4]oxazepin-3-yl)oxalamide] |  |  | 25 to 49
CN1C(=O)[C@@H](NC(=O)C(=O)NCCc2cccc(F)c2)COc2ccc(C#CC3(O)CCCCC3)cc21 [Example 112, (S)—N^1-(3-fluorophenethyl)-N^2-(7-((1-hydroxycyclohexyl)ethynyl)-5-methyl-4-oxo-2,3,4,5-tetrahydrobenzo[b][1,4]oxazepin-3-yl)oxalamide] | A (A: ≥90%) | < 0.1 | 
C[C@H](NC(=O)C(=O)N[C@H]1COc2ccc(C#CCN3CC[C@@H](O)C3)cc2N(C)C1=O)c1ccccc1 [Example 127, N^1-((S)-7-(3-((R)-3-hydroxypyrrolidin-1-yl)prop-1-yn-1-yl)-5-methyl-4-oxo-2,3,4,5-tetrahydrobenzo[b][1,4]oxazepin-3-yl)-N^2-((S)-1-phenylethyl)oxalamide] | B (B: 50-89%) | 0.1 to 0.5 | 
C[C@H](NC(=O)C(=O)N[C@H]1COc2ccc(C#CCN3CC[C@H](O)C3)cc2N(C)C1=O)c1ccccc1 [Example 129, N^1-((S)-7-(3-((S)-3-hydroxypyrrolidin-1-yl)prop-1-yn-1-yl)-5-methyl-4-oxo-2,3,4,5-tetrahydrobenzo[b][1,4]oxazepin-3-yl)-N^2-((S)-1-phenylethyl)oxalamide] | B (B: 50-89%) | 0.1 to 0.5 | 
C[C@H](NC(=O)C(=O)N[C@H]1COc2ccc(C#CC3(O)COC3)cc2N(C)C1=O)c1ccccc1 [Example 133, N^1-((S)-7-((3-hydroxyoxetan-3-yl)ethynyl)-5-methyl-4-oxo-2,3,4,5-tetrahydrobenzo[b][1,4]oxazepin-3-yl)-N^2-((S)-1-phenylethyl)oxalamide] | B (B: 50-89%) | 0.1 to 0.5 | 
C[C@H](NC(=O)C(=O)N[C@H]1COc2ccc(C#CCN3CCOCC3)cc2N(C)C1=O)c1ccccc1 [Example 141, N^1-((S)-5-methyl-7-(3-morpholinoprop-1-yn-1-yl)-4-oxo-2,3,4,5-tetrahydrobenzo[b][1,4]oxazepin-3-yl)-N^2-((S)-1-phenylethyl)oxalamide] | A (A: ≥90%) | < 0.1 | 
C[C@@H](NC(=O)C(=O)N[C@H]1COc2ccc(C#CC3CN(CCO)C3)cc2N(C)C1=O)c1ccccc1 [Example 150, N^1-((S)-7-((1-(2-hydroxyethyl)azetidin-3-yl)ethynyl)-5-methyl-4-oxo-2,3,4,5-tetrahydrobenzo[b][1,4]oxazepin-3-yl)-N^2-((R)-1-phenylethyl)oxalamide] | A (A: ≥90%) | < 0.1 | 
C[C@@H](NC(=O)C(=O)N[C@H]1CNc2ccc(C#CCN3CCOCC3)cc2N(C)C1=O)c1ccccc1 [Example 165, N^1-((S)-1-methyl-8-(3-morpholinoprop-1-yn-1-yl)-2-oxo-2,3,4,5-tetrahydro-1H-benzo[b][1,4]diazepin-3-yl)-N^2-((R)-1-phenylethyl)oxalamide] | A (A: ≥90%) | < 0.1 | 

Source: patent US20250368633A1, “AZEPINE FUSED RING COMPOUND AS RIPK1 INHIBITOR AND USE THEREOF” (ARTIVILA BIOPHARMA, priority 2022, published 2025)
